Test results reported in the supplement of paper PMC10949913.

Experiments:
Settings in all cases: 48 h
NCI-H295R [1] = test: AC50 viability; higher = less potent
How it was run: (§1)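 AC50 and area under the curve values derive from fitted concentration-response curves, restricted to inhibitory or non-responding curve classes. The curves came from three adrenocortical carcinoma cell lines in 1,536-well plates, each receiving 23 nL of every library compound at 11 concentrations. Viability was read by CellTiter-Glo luminescence after 48 h, normalised per plate to vehicle and empty-well controls.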

NCI-H295R [2] = test: area under concentration-response curve (viability) (AUC (a.u.)); higher = less active
How it was run: as §1

CU-ACC1 = test: as above
How it was run: as §1

CU-ACC2 = test: as above
How it was run: as §1

Structure (SMILES) | AC50 viability (NCI-H295R [1]) [µM] | area under concentration-response curve (NCI-H295R [2]) | area under concentration-response curve (CU-ACC1) | area under concentration-response curve (CU-ACC2)
C/C(=C\c1csc(C)n1)[C@@H]1C[C@@H]2O[C@@H]2CCC[C@H](C)[C@H](O)[C@@H](C)C(=O)C(C)(C)[C@@H](O)CC(=O)O1 | 0.0132 | 347 | 462 | 569
COC1=CC=CC2=C1C(=NC(=N2)C3=CC=CS3)NN4C(=O)\C=C(C)/C4=O | 5.9 | 438 | 423 | 489
CCCCc1oc2ccc(N[S+](C)(=O)[O-])cc2c1C(=O)c1ccc(OCCCN(CCCC)CCCC)cc1 | 7.42 | 486 | 477 | 563
Cc1cc(Nc2nc(N[C@@H](C)c3ncc(F)cn3)ncc2Cl)n[nH]1 | 14.8 | 488 | 472 | 544
COc1ccc(-c2ccc3c(N4CCOC[C@@H]4C)nc(N4CCOC[C@@H]4C)nc3n2)cc1CO | 0.417 | 387 | 431 | 485
C[C@@H]1COCCN1c1cc(C2([S@+](C)(=N)[O-])CC2)nc(-c2ccnc3[nH]ccc23)n1 | 16.6 | 525 | 524 | 491
O=C(Nc1cccc(C(F)(F)F)c1)Nc1cc([S+](=O)([O-])NC2CC2)ccc1-c1ccsc1 | 23.5 | 514 | 525 | 568
c1ccc(CNc2nc(N3CCOc4ccccc43)nc3c2CCCC3)cc1 | 20.9 | 481 | 449 | 528
CC/C(=C(/CC)c1ccc(O)cc1)c1ccc(O)cc1 | 18.6 | 517 | 516 | 585
O=C(Nc1ccncc1)C(=O)c1cn(Cc2ccc(Cl)cc2)c2ccccc12 | 0.372 | 418 | 471 | 419
O=C(O)c1ccc2c(c1)nc(Nc1cccc(Cl)c1)c1ccncc12 | 2.63 | 509 | 517 | 570
NC(=O)[C@@H](CCC(F)(F)F)N(Cc1ccc(-c2ncon2)cc1F)[S+](=O)([O-])c1ccc(Cl)cc1 | 20.9 | 469 | 441 | 476
COc1ccc([S+](=O)([O-])Nc2cc(-c3csc(C#N)c3)ccc2C)cc1 | 0.0934 | 393 | 489 | 529
CCC[C@H](N[C@H]1CCc2cc(F)cc(F)c2C1)C(=O)Nc1cn(C(C)(C)CNCC(C)(C)C)cn1 | 23.5 | 455 | 522 | 584
COc1cccc(-c2cc(F)ccc2C2Cc3nc(N)nc(C)c3C(=O)N2)n1 (stereo not drawn) | 0.59 | 403 | 379 | 413
COC(=O)c1ccc([C@H]2c3[nH]c4ccccc4c3C[C@H](C(=O)OC)N2C(=O)CCl)cc1 | 0.263 | 356 | 385 | 360
COc1cc(NCc2ccc3nc(N)nc(N)c3c2C)cc(OC)c1OC | 20.9 | 446 | 447 | 476
COc1cc([C@@H]2c3cc4c(cc3[C@H](O)[C@H]3COC(=O)[C@H]23)OCO4)cc(OC)c1OC | 0.0209 | 359 | 452 | 464
C[C@H](CN(C)C)Oc1nc(Nc2cc3cccc(Cl)c3cn2)cnc1C#N | 14.8 | 456 | 491 | 585
COc1cc([C@@H]2c3cc4c(cc3[C@@H](O[C@@H]3O[C@@H]5CO[C@@H](c6cccs6)O[C@H]5[C@H](O)[C@H]3O)[C@H]3COC(=O)[C@H]23)OCO4)cc(OC)c1O | 11.8 | 532 | 509 | 608
CCOC(=O)[C@H](CCc1ccccc1)N[C@@H](C)C(=O)N1CCC[C@H]1C(=O)O | 10.5 | 417 | 300 | 458
COc1ncc(-c2ccc3nccc(-c4ccnnc4)c3c2)cc1N[S+](=O)([O-])c1ccc(F)cc1F | 0.059 | 362 | 362 | 441
O=C(/C=C/c1cccnc1)NCCCCC1CCN(C(=O)c2ccccc2)CC1 | 0.0209 | 403 | 300 | 355
COC(=O)Nc1ccc(-c2nc(N3CCOCC3)c3cnn(C4CCN(Cc5cccnc5)CC4)c3n2)cc1 | 16.6 | 444 | 499 | 546
O=C(NC1CC1)c1cccc(-c2ccc3c(NC(=O)C4CC4)n[nH]c3c2)c1 | 20.9 | 496 | 495 | 542
c1cn2cc(-c3ccc4cn[nH]c4c3)nc(Nc3ccc(N4CCOCC4)cc3)c2n1 | 7.42 | 497 | 509 | 568
N#Cc1c(NC(=O)c2cccc3ccccc23)sc2c1CCCC2 | 0.372 | 458 | 480 | 551
